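Exposure lasted 48 hours, with cells grown in 96-well plates and compounds tested at five concentrations. GI50 marks 50% less growth. Definition used: TGI = concentration required for complete inhibition of growth.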

Among the test systems are UO-31 renal; SF-295 CNS; A498 renal; MOLT-4 leukemia; KM20L2 colon; HCT-15 colon; SN12C renal; HCT-116 colon; NCI-H522 lung; LOX IMVI melanoma.
Assay in all cases: NCI anticancer screen, dose series, 48 h

Regarding `CS(=O)(=O)OCCN1CCN(C(=O)c2cccc3c(Nc4ccc(S(=O)(=O)N=C(N)N)cc4)c4ccccc4nc23)CC1`, the TGI with UO-31 renal, in the test with SF-295 CNS, in the test on A498 renal, in the test on MOLT-4 leukemia, in the test on KM20L2 colon and with HCT-15 colon was above 100 µM in each case. The TGI in the test on SN12C renal and with HCT-116 colon was above 100 µM in each case.
Regarding `O=C(Nc1cccs1)c1c(O)[nH]c(=S)[nH]c1=O`, the TGI in the test on NCI-H522 lung, in the test on UO-31 renal, in the test with SF-295 CNS, in the test on A498 renal, with MOLT-4 leukemia and with KM20L2 colon was above 100 µM throughout. In addition, the TGI with LOX IMVI melanoma, in the test on HCT-15 colon and in the test on SN12C renal was above 100 µM each time.
For the molecule `Clc1ccc(Cc2nc3ccccc3s2)c(Cl)c1`, the TGI in the test with NCI-H522 lung came to 30.9 µM; with UO-31 renal, 30 µM; in the test on SF-295 CNS it was 31.8 µM; with A498 renal it was 41.5 µM; in the test on MOLT-4 leukemia, 41.2 µM; in the test on KM20L2 colon it was 52 µM. In addition, the TGI stood at 31.4 µM with LOX IMVI melanoma, 36.5 µM with HCT-15 colon and 30.3 µM in the test with SN12C renal.
Turning to `CC1CCP(=O)(c2ccccc2)c2ccccc21` (stereo not drawn), the TGI in the test on NCI-H522 lung is above 100 µM; with UO-31 renal it was above 100 µM; in the test on SF-295 CNS, above 100 µM; in the test on A498 renal, above 100 µM; in the test on MOLT-4 leukemia, 75.4 µM; in the test with KM20L2 colon, above 100 µM. Moreover, the TGI is 58 µM with LOX IMVI melanoma, above 100 µM with HCT-15 colon, 85.6 µM in the test on SN12C renal and 46.7 µM with HCT-116 colon.
Turning to `COc1ccc(NC(=O)C(=O)Cc2nc3ccc([N+](=O)[O-])cc3[nH]c2=O)c(OC)c1`, the TGI in the test with NCI-H522 lung, with UO-31 renal, in the test on SF-295 CNS, with A498 renal, with MOLT-4 leukemia and with KM20L2 colon was above 100 µM each time. The TGI with LOX IMVI melanoma, with HCT-15 colon and in the test with HCT-116 colon was above 100 µM throughout.
In the case of `COc1cc(/C=C\c2ccccc2)cc(OC)c1OC`, the TGI is 7.26 µM in the test on NCI-H522 lung; 30 µM in the test on UO-31 renal; 7.21 µM in the test on SF-295 CNS; above 41.1 µM with A498 renal; 17.2 µM in the test on MOLT-4 leukemia; 3.31 µM with KM20L2 colon. Besides, the TGI was above 100 µM with LOX IMVI melanoma, 36 µM in the test with HCT-15 colon, 48.6 µM in the test with SN12C renal and above 100 µM with HCT-116 colon.
As to `CCOC(=O)C1(Br)C(c2ccccc2)NC(=O)NC1(C)Br` (stereo not drawn), the TGI with NCI-H522 lung was above 53.2 µM; with UO-31 renal, above 100 µM; with SF-295 CNS it was above 100 µM; in the test on A498 renal, above 100 µM; with MOLT-4 leukemia, above 73.7 µM; in the test on KM20L2 colon it was above 100 µM. Also, the TGI is above 58.4 µM in the test with LOX IMVI melanoma, above 100 µM in the test on HCT-15 colon, above 100 µM in the test with SN12C renal and above 100 µM in the test with HCT-116 colon.
On to `OC1c2ccccc2C2(O)C1C(c1ccccc1)C(c1ccccc1)C2(O)c1ccccc1` (stereo not drawn), for which the TGI with NCI-H522 lung stood at 31.7 µM; in the test with UO-31 renal it was 55.5 µM; in the test with SF-295 CNS, 25.5 µM; in the test on MOLT-4 leukemia, 22.8 µM; with KM20L2 colon it was 22.5 µM; in the test on LOX IMVI melanoma, 21.1 µM. Besides, the TGI with HCT-15 colon came to 22.2 µM; with SN12C renal, 32.9 µM.
`O=C(Nc1cccc([N+](=O)[O-])c1)C(=O)C(C(=O)c1ccccc1-c1ccccc1)C1OC(=O)c2ccccc21` (stereo not drawn): the TGI in the test on NCI-H522 lung was 26.2 µM; with UO-31 renal, 51.8 µM; with SF-295 CNS, 66.5 µM; in the test on A498 renal, 60.2 µM; with MOLT-4 leukemia, 52.4 µM; in the test on KM20L2 colon it was 53.7 µM. In addition, the TGI in the test on LOX IMVI melanoma amounted to 36.6 µM; with HCT-116 colon, 26.6 µM.
On to `CC1(C)C(=O)C(C)(C)C1=NN`, for which the TGI in the test with NCI-H522 lung, in the test with UO-31 renal, in the test on SF-295 CNS, with MOLT-4 leukemia, in the test with KM20L2 colon and in the test on LOX IMVI melanoma was above 100 µM in each case. For the same molecule, the TGI in the test on HCT-15 colon, in the test with SN12C renal and in the test with HCT-116 colon was above 100 µM each time.
In the case of `COc1ccccc1N=C(N)N/N=C/c1c[nH]c2ccccc12`, the TGI in the test with NCI-H522 lung was 19.8 µM; in the test with UO-31 renal, 27.1 µM; in the test with SF-295 CNS, 21.3 µM; in the test on MOLT-4 leukemia, 23.4 µM; in the test on KM20L2 colon it was 26.1 µM; in the test with LOX IMVI melanoma it was 22.6 µM. The TGI amounted to 15.7 µM in the test with HCT-15 colon, 22.7 µM in the test with SN12C renal and 19.6 µM with HCT-116 colon.
In the case of `CC12N=NN(c3ccc([N+](=O)[O-])cc3)C1(O)c1ccccc1C2=O` (stereo not drawn), the TGI in the test on NCI-H522 lung, with UO-31 renal, in the test with SF-295 CNS, in the test with KM20L2 colon, in the test with LOX IMVI melanoma and in the test with HCT-15 colon was above 100 µM throughout. Further, the TGI with SN12C renal and in the test on HCT-116 colon was above 100 µM throughout.
Turning to `O=C(O)C1C2CCC(O2)C1C(=O)N1CCCCC1` (stereo not drawn), the TGI was determined as 17.4 µM with NCI-H522 lung; 46 µM in the test on UO-31 renal; 23.9 µM with SF-295 CNS; 4.46 µM with A498 renal; 20.6 µM in the test with MOLT-4 leukemia; 13.1 µM in the test on KM20L2 colon. Moreover, the TGI in the test with LOX IMVI melanoma is 23.3 µM; in the test with HCT-15 colon, 26.1 µM; in the test with SN12C renal it was 7.17 µM; in the test on HCT-116 colon it was 22.6 µM.
For `O=C(O)COc1ccc(O)c2c1C(=O)CCCC2=O`, the TGI with NCI-H522 lung, with UO-31 renal, in the test with SF-295 CNS, in the test on A498 renal, with MOLT-4 leukemia and in the test on KM20L2 colon was above 100 µM each time. The TGI in the test with LOX IMVI melanoma, with HCT-15 colon, with SN12C renal and in the test with HCT-116 colon was above 100 µM throughout.
As for `COc1cc(/C=C\c2ccc(C)cc2)cc(OC)c1OC`, the TGI with NCI-H522 lung is 0.013 µM; in the test on MOLT-4 leukemia, 0.51 µM; with KM20L2 colon it was 0.000535 µM; in the test with LOX IMVI melanoma, 38.7 µM; with SN12C renal, above 69 µM. Moreover, the GI50 in the test on SF-295 CNS is 0.00818 µM.

Source of the values: PubChem BioAssay (NCI).
